Structures can show the parent of a compound that is named as a salt.

33 molecules from US6875761B2 (Eisai Co., Ltd., priority 1997, dated 2005) can be followed below.

In turn, `CCN1CCN(c2nc(-c3ccc(C(O)C(C)(C)CO)cc3)cc3ccccc23)CC1` (stereo not drawn) (as salt: hydrochloride) [Example 391, 1-(4-Ethylpiperazin-1-yl)-3-[4-(1,3-Dihydroxy-2,2-Dimethylpropyl)Phenyl]Isoquinoline Dihydrochloride] gave a melting point of 150.5 to 151.5 °C.

For the molecule `CCN1CCN(c2nc(-c3ccc4c(c3)CC(CO)C4)cc3ccccc23)CC1` (stereo not drawn) (as salt: hydrochloride) [Example 393, 1-(4-Ethylpiperazin-1-yl)-3-(2-Hydroxymethylindan-5-yl)Isoquinoline Dihydrochloride], the melting point fell in the range of 136.5 to 138 °C.

For the molecule `CCN1CCN(c2nc(-c3ccc(CO)c(CO)c3)cc3ccccc23)CC1` (as salt: hydrochloride) [Example 394, 1-(4-Ethylpiperazin-1-yl)-3-[(3,4-Dihydroxymethyl)Phenyl]Isoquinoline Dihydrochloride], the melting point is 130.5 to 132 °C (dec.).

As to `CCN1CCN(c2nc(-c3ccc(C4COCCO4)cc3)cc3ccccc23)CC1` (stereo not drawn) (as salt: hydrochloride) [Example 395, 1-(4-Ethylpiperazin-1-yl)-3-[4-(1,4-Dioxan-2-yl)Phenyl]Isoquinoline Dihydrochloride], the melting point was 163 to 166 °C (dec.).

In turn, `CCN1CCN(c2nc(-c3ccc(C4CCCO4)cc3)cc3ccccc23)CC1` (stereo not drawn) (as salt: hydrochloride) [Example 396, 1-(4-Ethylpiperazin-1-yl)-3-[4-(Tetrahydrofuran-2-yl)Phenyl]Isoquinoline Dihydrochloride] gave a melting point of 129 to 130 °C.

In the case of `CCN1CCN(c2nc(-c3ccc([C@H]4CC[C@@H](O)CC4)cc3)cc3ccccc23)CC1` (as salt: hydrochloride) [Example 397, 1-(4-Ethylpiperazin-1-yl)-3-[4-(cis-4-Hydroxycyclohexyl)Phenyl]Isoquinoline Dihydrochloride], the melting point fell in the range of 152 to 153 °C.

For `CCN1CCN(c2nc(-c3ccc([C@H]4CC[C@H](O)CC4)cc3)cc3ccccc23)CC1` (as salt: hydrochloride) [Example 398, 1-(4-Ethylpiperazin-1-yl)-3-[4-(trans-4-Hydroxycyclohexyl)Phenyl]Isoquinoline Dihydrochloride], the melting point was 157 to 158 °C (dec.).

With `CCN1CCN(c2nc(-c3ccc(CC4CCOCC4)cc3)cc3ccccc23)CC1` (as salt: hydrochloride) [Example 399, 1-(4-Ethylpiperazin-1-yl)-3-[4-(tetrahydropyran-4-yl)Methylphenyl]Isoquinoline Dihydrochloride], the melting point was 182 to 184 °C (dec.).

`CCN1CCN(c2nc(-c3ccc(OC[C@@H](C)O)cc3)cc3ccccc23)CC1` (as salt: hydrochloride) [Example 403, 1-(4-ethylpiperazin-1-yl)-3-[4-(2-hydroxypropoxy)phenyl]isoquinoline Dihydrochloride] had a melting point of 112 to 114 °C.

In the case of `CCN1CCN(c2nc(-c3ccc(O[C@@H](C)CO)cc3)cc3ccccc23)CC1` (as salt: hydrochloride) [Example 404, 1-(4-ethylpiperazin-1-yl)-3-[4-(2-hydroxy-1-methylethoxy)phenyl]isoquinoline Dihydrochloride], the melting point was 128 to 129 °C.

On to `CCN1CCN(c2nc(-c3ccnc(OC)c3)cc3ccccc23)CC1` (as salt: hydrochloride) [Example 405, 1-(4-ethylpiperazin-1-yl)-3-(2-methoxypyridin-4-yl)isoquinoline], for which the melting point lay within 174 to 176 °C.

For `CCN1CCN(c2nc(-c3ccnc(OCCOC)c3)cc3ccccc23)CC1` (as salt: hydrochloride) [Example 407, 1-(4-ethylpiperazin-1-yl)-3-[2-(2-methoxyethoxy)pyridin-4-yl]isoquinoline], the melting point was in the range of 139 to 140 °C.

For the molecule `CCN1CCN(c2nc(-c3ccc(C(N)=O)cc3)cc3ccccc23)CC1` (as salt: hydrochloride) [Example 408, 1-(4-ethylpiperazin-1-yl)-3-(4-carbamoylphenyl)isoquinoline], the melting point lay in the range of 197 to 199 °C.

`CCN1CCN(c2nc(-c3ccc(C(O)C4CCCCC4)cc3)cc3ccccc23)CC1` (stereo not drawn) (as salt: hydrochloride) [Example 409, 1-(4-ethylpiperazin-1-yl)-3-[4-(cyclohexylhydroxymethyl)phenyl]isoquinoline] came in with a melting point of 153 to 155 °C.

The molecule `CCN1CCN(c2nc(-c3ccc(C(O)(c4nccs4)c4nccs4)cc3)cc3ccccc23)CC1` (as salt: hydrochloride) [Example 411, 1-(4-ethylpiperazin-1-yl)-3-{4-[bis(1,3-thiazol-2-yl)hydroxymethyl]phenyl}isoquinoline] displayed a melting point of 157 to 158 °C.

For the molecule `CCN1CCN(c2nc(-c3ccc4c(c3)CCC4=O)cc3ccccc23)CC1` (as salt: hydrochloride) [Example 414, 1-(4-ethylpiperazin-1-yl)-3-(1-indanon-5-yl)isoquinoline], the melting point was 233 °C (dec.).

Take `CCN1CCN(c2nc(-c3ccc(CCC(C)(C)O)c(F)c3)cc3ccccc23)CC1` (as salt: hydrochloride) [Example 416, 1-(4-ethylpiperazin-1-yl)-3-[4-(3-hydroxy-3-methylbutyl)-3-fluorophenyl]isoquinoline]: the melting point was 206 to 207 °C.

Molecule `CCN1CCN(c2nc(-c3ccc(OCCO)c(C#N)c3)cc3ccccc23)CC1` (as salt: hydrochloride) [Example 417, 1-(4-ethylpiperazin-1-yl)-3-[3-cyano-4-(2-hydroxyethoxy)phenyl]isoquinoline] displayed a melting point of 162 to 164 °C.

`CCN1CCN(c2nc(-c3cccc(CCCO)c3)cc3ccccc23)CC1` (as salt: hydrochloride) [Example 418, 1-(4-ethylpiperazin-1-yl)-3-[3-(3-hydroxypropyl)phenyl]isoquinoline] displayed a melting point of 101 to 103 °C.

Take `CCN1CCN(c2nc(Cc3ccccc3)cc3ccccc23)CC1` (as salt: hydrochloride) [Example 419, 1-(4-ethylpiperazin-1-yl)-3-benzylisoquinoline]: the melting point lay within 118 to 119 °C.

`CCN1CCN(c2nc(NC(=O)c3ccccc3)cc3ccccc23)CC1` (as salt: hydrochloride) [Example 421, 3-benzamide-1-(4-ethylpiperazin-1-yl)isoquinoline] registered a melting point of 160 to 162 °C.

Turning to `CCN1CCN(c2nc(COc3ccc(OC)cc3)cc3ccccc23)CC1` (as salt: hydrochloride) [Example 424, 1-(4-ethylpiperazin-1-yl)-3-(4-methoxyphenoxymethyl)isoquinoline Hydrochloride], the melting point lay within 101 to 102 °C.

`CCN1CCN(c2nc(-c3ccc(OCCO)cc3OC)cc3ccccc23)CC1` (as salt: hydrochloride) [Example 425, 1-(4-ethylpiperazin-1-yl)-3-[4-(2-hydroxyethoxy)-2-methoxyphenyl]isoquinoline] had a melting point of 140 to 142 °C.

As to `CCN1CCN(c2nc(-c3ccc(OC4CCCCC4O)cc3)cc3ccccc23)CC1` (stereo not drawn) (as salt: hydrochloride) [Example 426, 1-(4-ethylpiperazin-1-yl)-3-[4-(2-hydroxycyclohexyloxy)phenyl]isoquinoline Hydrochloride], the melting point lay in the range of 143 to 144 °C.

For the molecule `CCN1CCN(c2nc(-c3ccc(OC)cc3)nc3ccccc23)CC1` (as salt: hydrochloride) [Example 427, 4-(4-ethylpiperazin-1-yl)-2-(4-methoxyphenyl)quinazoline Dihydrochloride], the melting point was 224.5 to 226 °C (dec.).

Turning to `CCN1CCN(c2nc(-c3ccc(OC)cc3)cc3ccncc23)CC1` (as salt: hydrochloride) [Example 428, 1-(4-ethylpiperazin-1-yl)-3-(4-methoxyphenyl)-7-azaisoquinoline], the melting point is 222 °C (dec.).

As for `CCN1CCN(c2nc(-c3ccc(CCCO)nc3)cc3ccsc23)CC1` (as salt: hydrochloride) [Example 429, 7-(4-ethylpiperazin-1yl)-5-[2-(3-hydroxypropyl)pyridin-5-yl]thieno[2,3-c]pyridine hydrochloride], the melting point was 204 to 205 °C.

Regarding `CCN1CCN(c2nc(/C=C/c3cccc(OCCO)c3)cc3ccsc23)CC1` (as salt: hydrochloride) [Example 430, 7-(4-ethylpiperazin-1-yl)-5-[3-(2-hydroxyethoxy)styryl]thieno [2,3-c]pyridine hydrochloride], the melting point lay in the range of 98 to 99 °C.

Regarding `CCN1CCN(c2nc(/C=C/c3ccc(OCCO)cc3)cc3ccsc23)CC1` (as salt: hydrochloride) [Example 431, 7-(4-ethylpiperazin-1-yl)-5-[4-(2-hydroxyethoxy)styryl]thieno[2,3-c]pyridine hydrochloride], the melting point lay within 143 to 145 °C.

`CCN1CCN(c2nc(-c3ccc(CCCO)cc3)cc3ccsc23)CC1` (as salt: hydrochloride) [Example 432, 7-(4-ethylpiperazin-1-yl)-5-[4-(3-hydroxypropyl)phenyl]thieno[2,3-c]pyridine hydrochloride]: the melting point lay in the range of 112 to 113 °C.

`CCN1CCN(c2nc(-c3ccc(CCCO)c(OC)c3)cc3ccsc23)CC1` (as salt: hydrochloride) [Example 433, 7-(4-ethylpiperazin-1-yl)-5-[4-(3-hydroxypropyl)-3-methoxyphenyl]thieno[2,3-c]-pyridine hydrochloride]: the melting point lay within 114 to 115 °C.

As to `CCN1CCN(c2nc(-c3ccc(OCCCO)cc3)cc3ccsc23)CC1` (as salt: hydrochloride) [Example 434, 7-(4-ethylpiperazin-1-yl)-5-[4-(3-hydroxypropoxy)phenyl]thieno[2,3-c]pyridine dihydrochloride], the melting point lay in the range of 126 to 127 °C.

Take `CCN1CCN(c2nc(-c3ccc(OC[C@@H](C)O)cc3)cc3ccsc23)CC1` (as salt: hydrochloride) [Example 435, 7-(4-ethylpiperazin-1-yl)-5-[4-(2-hydroxypropoxy)phenyl]thieno[2,3-c]pyridine dihydrochloride]: the melting point lay in the range of 126 to 127 °C.
